Experimental data taken from patent US7041466B2, “Mouse disease model for evaluation of prophylactic and therapeutic treatments of Chlamydia” (priority 2002, dated 2006).
Entries after “also recorded” stand apart in the source; their conditions may differ. Read-outs that look alike come from different tables or passages of the source.

How the values were obtained:
C. psittaci strain B577 = conditions: mouse, in vivo
NO production = conditions: mouse, in vivo
[1] = tested on: IL-12p70, IFN-γ, NOS2, arginase I, arginase II in lung tissue; conditions: mouse, in vivo, 6 mg/kg
C. pneumoniae = conditions: mouse, in vivo
C. psittaci = conditions: mouse, in vivo
splenic CD4+ T cells = conditions: mouse, in vivo, 6 mg/kg/day

Structure (SMILES): CCC[C@H](N)C(=O)O [L-norvaline]
- chlamydial lung disease (lung weight increase), change in words (C. psittaci strain B577): significantly increased; also recorded: partially reverted to a disease phenotype
- chlamydial lung disease, change in words (C. psittaci strain B577): did not change the disease
- day-4 serum nitrite/nitrate (NO production): 123.22 ± 38.8 µM
- serum nitrite/nitrate (NO production), change in words (NO production): significantly increased; also recorded: produced more NO

Structure (SMILES): N=C(N)NN [AG, aminoguanidine]
- NOS2, arginase I and arginase II transcript levels on days 4 and 12 [1]: resembled those of BALB/c mice
- day-4 pulmonary IFN-γ transcripts [1]: significant increase
- day-4 pulmonary concentration of IL-12 p70 [1]: significant increase
- chlamydial lung burden on day 7 (C. psittaci strain B577): higher chlamydial burdens
- day-12 chlamydial lung burden (C. psittaci strain B577): greatly reduced
- day-12 disease (C. psittaci strain B577): did not show significant changes
- day-12 disease (lung weight increase) (C. psittaci strain B577): developed severe day-12 disease
- day-12 disease phenotype (lung weight increase) (C. psittaci strain B577): completely reversed the severe day-12 disease phenotype; also recorded: completely protected; also recorded: protected from disease
- disease outcomes and numbers of chlamydiae in lung tissue (C. psittaci strain B577): did not change disease outcomes
- elimination of chlamydiae from lungs after day 7 (C. psittaci strain B577): significantly more rapidly
- day-4 serum nitrite/nitrate (NO production; 6 mg/kg/day): 73.2 ± 3.8 µM
- day-4 serum nitrite/nitrate (NO production; 200 mg/kg/day): 39.7 ± 2.9 µM
- serum nitrite/nitrate (NO production), change in words (NO production; ip): significantly reduced; also recorded: reduced NO production of infected C57BL/6 mice in a dose-dependent manner
- chlamydial lung loads after secondary infection (C. pneumoniae): reduced chlamydial lung loads
- gross lung disease after secondary infection (C. pneumoniae): free of gross lung disease
- interstitial pneumonia on day 7 after secondary infection (C. pneumoniae): completely abolished the development of interstitial pneumonia
- reduction of chlamydial lung burden (C. psittaci): more than 10 fold
- chlamydial burden on day 7 after secondary infection (C. psittaci; 100 mg/kg): substantially, but not significantly, higher
- disease (interstitial pneumonia) on day 7 after secondary infection (C. psittaci; 100 mg/kg): completely abolished disease; also recorded: completely abolished the development of interstitial pneumonia
- disease on day 7 after secondary infection (C. psittaci; 100 mg/kg): marginally increased
- CD4+ splenocytes, day 4 (splenic CD4+ T cells): 28.0±0.55%
